Assay results reported in patent US9708314B2, “Heterocyclic amide compound” (NISSAN CHEMICAL INDUSTRIES, LTD., priority 2013, dated 2017).

Tests used:
Type in all cases: in vivo
[1] = tested on: Echinochloa oryzacola Vasing.; experiment: Test Example 1: herbicidal activity, application before weed generation in submerged conditions; conditions: Seventeenth Table; application herbicide amount 320 g/ha
How it was run: (§1)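 Water-diluted emulsion formulation is applied onto flood water (4 cm deep) covering alluvial soil on the day weed seeds are sown, after transplanting 2.5 leaf stage rice. Rates are expressed per hectare. Injury or control is graded 0–5 three weeks later.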

Monochoria vaginalis [2] = experiment: as above; conditions: Seventeenth Table; application herbicide amount 320 g/ha
How it was run: as §1

Scirpus juncoides [3] = experiment: as above; conditions: Seventeenth Table; application herbicide amount 320 g/ha
How it was run: as §1

[4] = tested on: transplanted Oryza sativa; experiment: Test Example 1: effect on crop, application before weed generation in submerged conditions; conditions: Seventeenth Table; application herbicide amount 320 g/ha
How it was run: as §1

[5] = tested on: Echinochloa oryzacola Vasing.; experiment: Test Example 2: herbicidal activity, application during weed generation in submerged conditions; conditions: Eighteenth Table; application herbicide amount 320 g/ha
How it was run: (§2)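 Seeds were sown together in alluvial soil kept under 4 cm of water and grown at 25 °C to 30 °C. Once plants reached the one- to two-leaf stage, the diluted emulsion was applied to the water surface at a predetermined g/ha amount, and effects were rated 0–5 after three weeks.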

Monochoria vaginalis [6] = experiment: as above; conditions: Eighteenth Table; application herbicide amount 320 g/ha
How it was run: as §2

Scirpus juncoides [7] = experiment: as above; conditions: Eighteenth Table; application herbicide amount 320 g/ha
How it was run: as §2

[8] = tested on: Echinochloa crus-galli var. crus-galli; experiment: Test Example 3: herbicidal effect by application to foliage (Wagner pot, water depth 0.1-0.5 cm); conditions: Nineteenth Table; application to foliage; application herbicide amount 320 g/ha
How it was run: (§3)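 A small sprayer delivered the diluted emulsion uniformly to foliage at the chosen rate in g/ha, 14 days after sowing in Wagner pots held at 25–30 °C. Outcome: 0–5 herbicidal-ratio score read three weeks post-treatment.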

Leptochloa chinensis = experiment: as above; conditions: Nineteenth Table; application to foliage; application herbicide amount 320 g/ha
How it was run: as §3

Structure (SMILES) | A (Echinochloa oryzicola Vasing.) herbicidal ratio grade [1] | C (Monochoria vaginalis) herbicidal ratio grade (Monochoria vaginalis [2]) | B (Scirpus juncoides) herbicidal ratio grade (Scirpus juncoides [3]) | a (transplanted Oryza sativa) effect on crop grade [4] | A (Echinochloa oryzicola Vasing.) herbicidal ratio grade [5] | C (Monochoria vaginalis) herbicidal ratio grade (Monochoria vaginalis [6]) | B (Scirpus juncoides) herbicidal ratio grade (Scirpus juncoides [7]) | H (herbicidal effect grade) [8] | D (herbicidal effect grade) (Leptochloa chinensis)
COc1ccc(N(C)c2nnc3c(C(=O)Nc4nnnn4C)ccc(C(F)(F)F)n23)cc1 [2-099] | 5 (Herbicidal ratio of 90% or more (almost completely withered)) | 5 (Herbicidal ratio of 90% or more (almost completely withered)) | 4 (Herbicidal ratio of 70% or more and less than 90%) | 4 (Herbicidal ratio of 70% or more and less than 90%) | 5 (Herbicidal ratio of 90% or more (almost completely withered)) | 4 (Herbicidal ratio of 70% or more and less than 90%) | 5 (Herbicidal ratio of 90% or more (almost completely withered)) | 5 (Herbicidal ratio of 90% or more (almost completely withered)) | 5 (Herbicidal ratio of 90% or more (almost completely withered))
Cn1nnnc1NC(=O)c1ccc(C(F)(F)F)n2c(C3(C)CC3(Cl)Cl)nnc12 (stereo not drawn) [2-110] | 5 (Herbicidal ratio of 90% or more (almost completely withered)) | 5 (Herbicidal ratio of 90% or more (almost completely withered)) | 5 (Herbicidal ratio of 90% or more (almost completely withered)) | 4 (Herbicidal ratio of 70% or more and less than 90%) | 5 (Herbicidal ratio of 90% or more (almost completely withered)) | 4 (Herbicidal ratio of 70% or more and less than 90%) | 5 (Herbicidal ratio of 90% or more (almost completely withered)) | 5 (Herbicidal ratio of 90% or more (almost completely withered)) | 5 (Herbicidal ratio of 90% or more (almost completely withered))
C#CCSc1nnc2c(C(=O)Nc3nnnn3C)ccc(C(F)(F)F)n12 [2-103] | 5 (Herbicidal ratio of 90% or more (almost completely withered)) | 5 (Herbicidal ratio of 90% or more (almost completely withered)) | 4 (Herbicidal ratio of 70% or more and less than 90%) | 3 (Herbicidal ratio of 40% or more and less than 70%) | 4 (Herbicidal ratio of 70% or more and less than 90%) | 4 (Herbicidal ratio of 70% or more and less than 90%) | 3 (Herbicidal ratio of 40% or more and less than 70%) | 5 (Herbicidal ratio of 90% or more (almost completely withered)) | 5 (Herbicidal ratio of 90% or more (almost completely withered))
CC(=O)OCc1nnc2c(C(=O)Nc3nnnn3C)ccc(C(F)(F)F)n12 [2-107] | 2 (Herbicidal ratio of 20% or more and less than 40%) | 2 (Herbicidal ratio of 20% or more and less than 40%) | 3 (Herbicidal ratio of 40% or more and less than 70%) | 1 (Herbicidal ratio of 5% or more and less than 20%) | 2 (Herbicidal ratio of 20% or more and less than 40%) | 2 (Herbicidal ratio of 20% or more and less than 40%) | 1 (Herbicidal ratio of 5% or more and less than 20%) | 4 (Herbicidal ratio of 70% or more and less than 90%) | 5 (Herbicidal ratio of 90% or more (almost completely withered))
